Tests used:
[1] = test system: Oryza sativa, (L.) Tebonnet; assay: Rice tolerance to post-transplant applications under flooded paddy conditions (Example 187), ORYSAT (Rice, Tebonnet); settings: for herbicidal effect rating ORYSAT: rated three to four weeks after treatment; for ORYSAT: herbicidal effect rating 0-9, three to four weeks after treatment; on herbicidal effect rating ORYSAT: meaning of each grade not given here
[2] = test system: Monochoria vaginalis, Presl.; assay: Preemergence weed control under flooded paddy conditions, MOOVA (Monochoria); type: in vivo; settings: flooded paddy; for herbicidal effect rating, MOOVA: preemergence, rated three to four weeks after treatment; for MOOVA: preemergence weeds, herbicidal effect rating 0-9, three to four weeks after treatment
[3] = test system: Cyperus iria; assay: Preemergence weed control under flooded paddy conditions, CYPIR (Rice Flatsedge); type: in vivo; settings: flooded paddy; for herbicidal effect rating, CYPIR: preemergence, rated three to four weeks after treatment; for CYPIR: preemergence weeds, herbicidal effect rating 0-9, three to four weeks after treatment
[4] = test system: Cyperus serotinus, Rottb.; assay: Preemergence weed control under flooded paddy conditions, CYPSE (Flatsedge); type: in vivo; settings: for herbicidal effect rating, CYPSE: preemergence, rated three to four weeks after treatment; for CYPSE: preemergence weeds, herbicidal effect rating 0-9, three to four weeks after treatment
[5] = test system: Monochoria vaginalis, Presl.; assay: Postemergence weed control under flooded paddy conditions, MOOVA (Monochoria); type: in vivo; settings: rated three to four weeks after treatment
[6] = test system: Cyperus iria; assay: Postemergence weed control under flooded paddy conditions, CYPIR (Rice Flatsedge); type: in vivo; settings: rated three to four weeks after treatment
[7] = test system: Echinochloa oryzoides (Ard.) Fritsch.; assay: Preemergence weed control under flooded paddy conditions, ECHORC (Watergrass (Calif.)); type: in vivo; settings: flooded paddy; for herbicidal effect rating, ECHORC: preemergence, rated three to four weeks after treatment; for ECHORC: preemergence weeds, herbicidal effect rating 0-9, three to four weeks after treatment
[8] = test system: Echinochloa oryzoides (Ard.) Fritsch.; assay: Postemergence weed control under flooded paddy conditions, ECHORC (Watergrass (Calif.)); type: in vivo; settings: rated three to four weeks after treatment
[9] = test system: Sagittaria pygmaea, L.; assay: Postemergence weed control under flooded paddy conditions, SAGPY (Arrowhead (Pygmaea)); type: in vivo; settings: rated three to four weeks after treatment
[10] = test system: Cyperus serotinus, Rottb.; assay: Postemergence weed control under flooded paddy conditions, CYPSE (Flatsedge); type: in vivo; settings: rated three to four weeks after treatment
[11] = test system: Sagittaria pygmaea, L.; assay: Preemergence weed control under flooded paddy conditions, SAGPY (Arrowhead (Pygmaea)); type: in vivo; settings: flooded paddy; for herbicidal effect rating, SAGPY: preemergence, rated three to four weeks after treatment; for SAGPY: preemergence weeds, herbicidal effect rating 0-9, three to four weeks after treatment
[12] = test system: Oryza sativa, (L.) Tebonnet; assay: Rice tolerance to post-transplant applications under flooded paddy conditions (Example 188), ORYSAT (Rice, Tebonnet); settings: rated three to four weeks after treatment

## COCc1nsc2cc(F)c(-n3c(=O)cc(C(F)(F)F)n(C)c3=O)cc12 [Example 378, 2,4(1H,3H)-Pyrimidinedione, 3-[6-fluoro-3-(methoxymethyl)-1,2-benzisothiazol-5-yl]-1-methyl-6-(trifluoromethyl)-]
[1]; Rate 0.0320 kg/ha
  herbicidal effect rating ORYSAT: 9.0
[1]; Rate 0.0620 kg/ha
  herbicidal effect rating ORYSAT: 9.0
[1]; Rate 0.1250 kg/ha
  herbicidal effect rating ORYSAT: 9.0
[1]; Rate 0.2500 kg/ha
  herbicidal effect rating ORYSAT: 9.0
[2]; Rate 0.0320 kg/ha
  herbicidal effect rating, MOOVA: 9.0
[2]; Rate 0.0620 kg/ha
  herbicidal effect rating, MOOVA: 9.0
[2]; Rate 0.1250 kg/ha
  herbicidal effect rating, MOOVA: 9.0
[2]; Rate 0.2500 kg/ha
  herbicidal effect rating, MOOVA: 9.0
[3]; Rate 0.0320 kg/ha
  herbicidal effect rating, CYPIR: 9.0
[3]; Rate 0.0620 kg/ha
  herbicidal effect rating, CYPIR: 9.0
[3]; Rate 0.1250 kg/ha
  herbicidal effect rating, CYPIR: 9.0
[3]; Rate 0.2500 kg/ha
  herbicidal effect rating, CYPIR: 9.0
[4]; Rate 0.0320 kg/ha
  herbicidal effect rating, CYPSE: 9.0
[4]; Rate 0.0620 kg/ha
  herbicidal effect rating, CYPSE: 9.0
[4]; Rate 0.1250 kg/ha
  herbicidal effect rating, CYPSE: 9.0
[4]; Rate 0.2500 kg/ha
  herbicidal effect rating, CYPSE: 9.0
[5]; Rate 0.0320 kg/ha
  herbicidal effect rating, MOOVA: 9.0
[5]; Rate 0.0620 kg/ha
  herbicidal effect rating, MOOVA: 9.0
[5]; Rate 0.1250 kg/ha
  herbicidal effect rating, MOOVA: 9.0
[6]; Rate 0.0320 kg/ha
  herbicidal effect rating, CYPIR: 9.0
[6]; Rate 0.0620 kg/ha
  herbicidal effect rating, CYPIR: 9.0
[6]; Rate 0.1250 kg/ha
  herbicidal effect rating, CYPIR: 9.0
[7]; Rate 0.0320 kg/ha
  herbicidal effect rating, ECHORC: 9.0
[7]; Rate 0.0620 kg/ha
  herbicidal effect rating, ECHORC: 9.0
[7]; Rate 0.1250 kg/ha
  herbicidal effect rating, ECHORC: 9.0
[7]; Rate 0.2500 kg/ha
  herbicidal effect rating, ECHORC: 9.0
[8]; Rate 0.0320 kg/ha
  herbicidal effect rating, ECHORC: 9.0
[8]; Rate 0.0620 kg/ha
  herbicidal effect rating, ECHORC: 9.0
[8]; Rate 0.1250 kg/ha
  herbicidal effect rating, ECHORC: 9.0
[9]; Rate 0.0320 kg/ha
  herbicidal effect rating, SAGPY: 9.0
[9]; Rate 0.0620 kg/ha
  herbicidal effect rating, SAGPY: 9.0
[9]; Rate 0.1250 kg/ha
  herbicidal effect rating, SAGPY: 9.0
[10]; Rate 0.0320 kg/ha
  herbicidal effect rating, CYPSE: 9.0
[10]; Rate 0.0620 kg/ha
  herbicidal effect rating, CYPSE: 9.0
[10]; Rate 0.1250 kg/ha
  herbicidal effect rating, CYPSE: 9.0
[11]; Rate 0.0320 kg/ha
  herbicidal effect rating, SAGPY: 9.0
[11]; Rate 0.0620 kg/ha
  herbicidal effect rating, SAGPY: 9.0
[11]; Rate 0.1250 kg/ha
  herbicidal effect rating, SAGPY: 9.0
[11]; Rate 0.2500 kg/ha
  herbicidal effect rating, SAGPY: 9.0
[12]; Rate 0.0320 kg/ha
  herbicidal effect rating, ORYSAT (rice tolerance): 8.0
[12]; Rate 0.0620 kg/ha
  herbicidal effect rating, ORYSAT (rice tolerance): 8.0
[12]; Rate 0.1250 kg/ha
  herbicidal effect rating, ORYSAT (rice tolerance): 9.0

## Cn1c(C(F)(F)F)cc(=O)n(-c2ccc3snc(C(=O)C(C)(C)C)c3c2)c1=O [Example 432, 2,4(1H,3H)-Pyrimidinedione, 1-methyl-3-(3-pivaloyl-1,2-benzisothiazol-5-yl)-6-(trifluoromethyl)-]
[1]; 0.0320 kg/ha
  ORYSAT: 6.0
[1]; 0.0620 kg/ha
  ORYSAT: 6.0
[1]; 0.1250 kg/ha
  ORYSAT: 6.5
[1]; 0.2500 kg/ha
  ORYSAT: 7.5
[2]; 0.0320 kg/ha
  MOOVA: 9.0
[2]; 0.0620 kg/ha
  MOOVA: 9.0
[2]; 0.1250 kg/ha
  MOOVA: 9.0
[2]; 0.2500 kg/ha
  MOOVA: 9.0
[3]; 0.0320 kg/ha
  CYPIR: 8.0
[3]; 0.0620 kg/ha
  CYPIR: 9.0
[3]; 0.1250 kg/ha
  CYPIR: 9.0
[3]; 0.2500 kg/ha
  CYPIR: 9.0
[4]; 0.0320 kg/ha
  CYPSE: 0.0
[4]; 0.0620 kg/ha
  CYPSE: 3.5
[4]; 0.1250 kg/ha
  CYPSE: 6.5
[4]; 0.2500 kg/ha
  CYPSE: 9.0
[5]; Rate 0.0320 kg/ha
  herbicidal effect rating, MOOVA: 9.0
[5]; Rate 0.0620 kg/ha
  herbicidal effect rating, MOOVA: 9.0
[5]; Rate 0.1250 kg/ha
  herbicidal effect rating, MOOVA: 9.0
[5]; Rate 0.2500 kg/ha
  herbicidal effect rating, MOOVA: 9.0
[6]; Rate 0.0320 kg/ha
  herbicidal effect rating, CYPIR: 8.0
[6]; Rate 0.0620 kg/ha
  herbicidal effect rating, CYPIR: 8.0
[6]; Rate 0.1250 kg/ha
  herbicidal effect rating, CYPIR: 9.0
[6]; Rate 0.2500 kg/ha
  herbicidal effect rating, CYPIR: 9.0
[7]; 0.0320 kg/ha
  ECHORC: 9.0
[7]; 0.0620 kg/ha
  ECHORC: 9.0
[7]; 0.1250 kg/ha
  ECHORC: 9.0
[7]; 0.2500 kg/ha
  ECHORC: 9.0
[8]; Rate 0.0320 kg/ha
  herbicidal effect rating, ECHORC: 9.0
[8]; Rate 0.0620 kg/ha
  herbicidal effect rating, ECHORC: 9.0
[8]; Rate 0.1250 kg/ha
  herbicidal effect rating, ECHORC: 9.0
[8]; Rate 0.2500 kg/ha
  herbicidal effect rating, ECHORC: 9.0
[9]; Rate 0.0320 kg/ha
  herbicidal effect rating, SAGPY: 0.0
[9]; Rate 0.0620 kg/ha
  herbicidal effect rating, SAGPY: 0.0
[9]; Rate 0.1250 kg/ha
  herbicidal effect rating, SAGPY: 2.0
[9]; Rate 0.2500 kg/ha
  herbicidal effect rating, SAGPY: 4.0
[10]; Rate 0.0320 kg/ha
  herbicidal effect rating, CYPSE: 0.0
[10]; Rate 0.0620 kg/ha
  herbicidal effect rating, CYPSE: 4.0
[10]; Rate 0.1250 kg/ha
  herbicidal effect rating, CYPSE: 7.0
[10]; Rate 0.2500 kg/ha
  herbicidal effect rating, CYPSE: 9.0
[11]; 0.0320 kg/ha
  SAGPY: 0.0
[11]; 0.0620 kg/ha
  SAGPY: 3.5
[11]; 0.1250 kg/ha
  SAGPY: 7.5
[11]; 0.2500 kg/ha
  SAGPY: 8.5
[12]; Rate 0.0320 kg/ha
  herbicidal effect rating, ORYSAT (rice tolerance): 4.0
[12]; Rate 0.0620 kg/ha
  herbicidal effect rating, ORYSAT (rice tolerance): 4.0
[12]; Rate 0.1250 kg/ha
  herbicidal effect rating, ORYSAT (rice tolerance): 7.0
[12]; Rate 0.2500 kg/ha
  herbicidal effect rating, ORYSAT (rice tolerance): 7.0

Reference: patent publication EP0908457B1, “3-(1,2-benzisothiazol- and isoxazol-5-Y1)-2,4(1H,3H)-pyrimidinedione or thione and 3-(1,2-benzisothiazol- and isoxazol-5-y1)-4(3H)-pyrimidinone or thione herbicidal agents” (BASF AKTIENGESELLSCHAFT, priority 1997, dated 1999)
